Experimental data published in US11939351B2, “Amorphous mixture comprising a neutral mono- or oligosaccharide and an acidic non-carbohydrate component” (GLYCOM A/S, priority 2017, dated 2024).
Where two headings read alike, the source gives them in different places.

Tests used:
[1] = assay type: physicochemical
Excerpt: This means that an amorphous 2′-FL according to the present invention, the pH of the 5 w/w % aqueous solution of which is around 3.5-4.5, has a slightly shorter shelf-life than that for an amorphous 2′-FL having a pH of 4.5-5.8. […] In this regard it can be concluded that a fucosylated neutral HMO other than 2′-FL is hydrolytically as stable as a non-fucosylated neutral HMO.

[2] = Forced storage stability of 2′-FL and DFL mixture samples at 60° C. and 80° C., analysed by HPAEC (Example 2); assay type: physicochemical
Procedure: One gram of each sample, separately, was put into a 4 ml glass vial and closed with screw lid containing teflon […]. The 8-week storage sample was put into a 60° C. oven, followed by the 4-week and the 2-week samples 4 and 6 weeks later, respectively), so the incubation of all samples ended in the same time. Similar pattern of experimental design was followed with the samples to be measured at 80° C. (4-week, 2-week and 1-week samples). The samples were kept in a freezer until they were put into the oven at a given time. Standards were kept in a freezer until analysis. The stability samples and the standards were analysed by HPAEC.

[3] = in the acidic samples (pH = 4.5)
[4] = in the neutral sample (pH = 7.0)

hydrolysis to fucose and lactose ([1]; at a pH around 4.0-4.5) | hydrolysis to fucose and lactose ([1]; at around a pH of 3.5) | preferred pH range in which no substantial hydrolysis and rearrangement occur ([2]; estimated from the Example 2 data) | hydrolysis (into fucose and lactose) [2, 3] | hydrolysis (into fucose and lactose) [2, 4] | hydrolytic stability [1] | Structure (SMILES)
still detectable | low degree of hydrolysis | 5.2-5.8 | slight hydrolysis | did not occur |  | C[C@@H]1O[C@@H](O[C@H]2[C@H](O[C@H]3[C@H](O)[C@@H](O)C(O)O[C@@H]3CO)O[C@H](CO)[C@H](O)[C@@H]2O)[C@@H](O)[C@H](O)[C@@H]1O (some centres unmarked) [2′-FL, 2′-fucosyllactose]
 |  |  | did not undergo hydrolysis | did not undergo hydrolysis | hydrolytically stabile | C[C@@H]1O[C@@H](O[C@H]2[C@H](O[C@H]3[C@H](O[C@@H]4O[C@@H](C)[C@@H](O)[C@@H](O)[C@@H]4O)[C@@H](O)C(O)O[C@@H]3CO)O[C@H](CO)[C@H](O)[C@@H]2O)[C@@H](O)[C@H](O)[C@@H]1O (some centres unmarked) [DFL, difucosyllactose]
